Consider five compounds from US5028726A, “Platinum amine sulfoxide complexes” (The University of Vermont and State Agricultural College, priority 1990, dated 1991).

One data set deals with B16 melanoma. The data set is described as follows: In vivo efficacy, B16 melanoma, compared to cisplatin. Set-up: species or system mice. The note with it: tumor s.c., drug i.p.
The conditions of data set [1]: clinical, compared with parent complex cisplatin; cited from earlier work.
Data set [2] deals with L1210/0 murine leukemia cells. The data set is described as follows: In vitro cytotoxicity, DDP-sensitive L1210/0 cells. The format is cell-based. Conditions: L1210/0, DDP-sensitive; 72 hours; read-out: In Vitro Activity in L1210 Leukemia, L1210/O (ID50). As for the experimental part: (§1) L1210 murine leukemia cells sensitive to the cytotoxicity of DDP (L1210/0) were cultured as a suspension in McCoy's 5A medium supplemented with 5% donor horse serum and glutamine. L1210 cells, 40-60 fold resistant to DDP (L1210/DDP) or 30-fold resistant to [Pt(R,R-dach)SO4 ] (L1210/dach), were cultured in McCoy's 5A medium supplemented with 10% fetal bovine serum and glutamine. Both cell lines were grown in a humidified atmosphere to 5% CO2 : 95% air at 37° C. For testing purposes, cells were diluted to 5×10^4 cells/ml and 1 ml of cell suspension aliquoted to disposable tissue culture tubes. Test compound was then added to the appropriate tubes (40 μl/tube) to attain final concentrations of 0.01, 0.1, 1.0 and 10 μg/ml. After 72 hours, the cell concentrations of all tubes were determined using a Coulter counter. The percent growth inhibition for each drug concentration was then calculated and the ID 50 (concentration of drug required to inhibit cell growth by 50%) was derived. The resistance factor for each compound was obtained by dividing the ID50 (L1210/DDP) by the ID50 (L1210/0).
(§2) In Vitro Activity (μM) of [PtCl(R2 SO)(damch)]NO3 in L1210

The test system of a further data set is L1210/DDP cells. The data set is described as follows: In vitro cytotoxicity, DDP-resistant L1210/DDP cells. Conditions: for Resistance Factor (R), L1210/DDP: ID50 (L1210/DDP) divided by ID50 (L1210/0), 4320 min; for IC50: L1210/DDP, 40-60 fold resistant to DDP, 72 hours, read-out: In Vitro Activity in L1210 Leukemia, L1210/DDP (ID50). In kind it is cell-based, murine. As for the experimental part:
as §1, §2
(§3) ^a R = Resistance Factor which is defined as ID50 (Sensitive or […]

The test system of a further data set is L1210 leukemia. The data set is described as follows: In vivo efficacy, L1210 leukemia in mice. The note with it: days 1, 5 and 9. Set-up: species or system murine (male BDR mice). As for the experimental part:
(§4) Male BDR mice weighing 18-20 gm were purchased from the National Cancer Institute and housed in an environment having controlled humidity, temperature and photoperiods. The animals had food and water available ad libitum and wood chip bedding was changed daily. The L1210/0 and P388 murine leukemias were maintained as ascites tumors by weekly intraperitoneal (i.p.) inoculations of 10^6 cells For testing purposes, 10^6 tumor cells were inoculated i.p. (day 0) and mice were administered test compound i.p. on days 1, 5 and 9. Animals were observed daily for signs of toxicity and deaths and the day of death recorded for each animal that died during the 60 day observation period. The efficacy of each dose of compound tested was evaluated by calculating the percent increased life span determined by dividing the mean survival time of treated mice (using the day of death of only those animals that dies during the 60 day period) by the mean survival time of non-treated tumor bearing control animals (% T/C). […] An additional index of antitumor activity is the number of long term survivors defined as treated animals alive at the end of the study. The complexes tested and the results observed are summarized in Table 3 (L1210 leukemia) and in Table 4 (P338 leukemia). The data in Table 5 compares to the in vivo activity of [PtCl(n-Bu2 SO)](damch)NO3 with that of cisplatin.

A further data set relates to L1210/dach cells. The data set is described as follows: In vitro cytotoxicity, [Pt(R,R-dach)SO4]-resistant L1210/dach cells. In kind it is cell-based, murine. As for the experimental part:
as §1, §2, §3

A further data set has as its system P388 leukemia. The data set is described as follows: In vivo efficacy, P388 leukemia in mice. Set-up: species or system murine (male BDR mice). The note with it: days 1, 5 and 9. As for the experimental part:
as §4

Where [3] appears, read: dose 3 × 12.5, complex in saline.

As to `N.N.[Cl][Pt][Cl]` [Cisplatin, cis-[PtCl2 (NH3)2], reference compound], the “% T/C, B16 melanoma” value with B16 melanoma (dose 3 × 5) was found to be 170%.

On to `N.N.O=C([O-])C1(C(=O)[O-])CCC1.[Pt+2]` [carboplatin, [Pt(NH3)2 (CBDCA)]], for which the nephrotoxicity result in data set [1] was “reduction in the severe nephrotoxicity of the parent complex”.

With “[PtCl(R2 SO)(damch)]NO3, R = Me [reference compound]”, the IC50 in data set [2] was determined as 1090 nM. In addition, in the data set with L1210/DDP cells, the “Resistance Factor (R), L1210/DDP” value was 3.58 and the IC50 is 3900 nM. The “% T/C, L1210 leukemia” value with L1210 leukemia (3 × 100 mg/kg i.p.) came to 152%.

As to [PtCl(R2 SO)(damch)]NO3, R = n-Pr, the IC50 in data set [2] was determined as 620 nM; with L1210/DDP cells, 2920 nM. Also, the “Resistance Factor (R), L1210/DDP” value with L1210/DDP cells is recorded as 4.70. The “% T/C, L1210 leukemia” value in the data set on L1210 leukemia (3 × 12.5 mg/kg i.p.) was found to be 162%; in the data set with L1210 leukemia (3 × 25 mg/kg i.p.), 185%.

On to [PtCl(damch)(n-Bu2 SO)]^+ NO3 ^-, for which the IC50 stood at 390 nM in data set [2]; 2360 nM in the data set with L1210/DDP cells; 5360 nM with L1210/dach cells (L1210/dach, 30-fold resistant to [Pt(R,R-dach)SO4], 72 hours, read-out: In Vitro Activity in L1210 Leukemia, L1210/dach (ID50)). The “Resistance Factor (R), L1210/DDP” value in the data set with L1210/DDP cells was 6.05. Besides, the “Resistance Factor (R), L1210/dach” value with L1210/dach cells (resistance factor for L1210/dach versus L1210/0, 4320 min) came to 41.23. Also, in the data set on L1210 leukemia (3 × 25 mg/kg (D5W) i.p.), the “% T/C, L1210 leukemia” value worked out at 260%. Also, the “% T/C, P388 leukemia” value in the data set with P388 leukemia (dose 3 × 6.25, i.p.) amounted to 167%; in the data set with P388 leukemia (dose 3 × 12.5, i.p.), 146%; in the data set on P388 leukemia (dose 3 × 25 (D5W), i.p.), 195%; in the data set on P388 leukemia (dose 3 × 25, i.p.), 189%. In addition, the “% T/C, B16 melanoma” value worked out at 154% with B16 melanoma (dose 3 × 6.25, complex in saline); 136% with B16 melanoma (setting [3]); 188% in the data set on B16 melanoma (dose 3 × 25, complex in saline). Further, the “figure in parentheses after % T/C (presumably long term survivors), B16 melanoma” value in the data set on B16 melanoma (setting [3]) is given as 1/6.
